The values below come from ChEMBL document CHEMBL4725326, “Synthesis, α-glucosidase inhibition, and molecular docking studies of novel N-substituted hydrazide derivatives of atranorin as antidiabetic agents” (Bioorg Med Chem Lett, 2020).

Bounds are passed on as bounds.

A short description of assay [1]: Inhibition of alpha-glucosidase (unknown origin). Also on record: species or system Homo sapiens.
The next assay deals with HEK293. The experiment in a line: Cytotoxicity against HEK293 cells assessed as reduction in cell viability. Format: cell-based. The settings on record: Homo sapiens.

Usually IC50 stands for the concentration that gives 50% inhibition. Regarding `COC(=O)c1c(C)cc(OC(=O)c2c(C)cc(O)c(/C=N/NC(=O)COc3ccc(C)cc3)c2O)c(C)c1O`, the IC50 in assay [1] is 54.7 µM; with HEK293, above 100 µM. For `COC(=O)c1c(C)cc(OC(=O)c2c(C)cc(O)c(/C=N/NC(=O)CSc3nc4ccccc4s3)c2O)c(C)c1O`, in that order: 9.12 µM and 70.1 µM. With `COC(=O)c1c(C)cc(OC(=O)c2c(C)cc(O)c(/C=N/NC(=O)COc3ccccc3C)c2O)c(C)c1O`, the concentration for half-maximal inhibition (IC50) in assay [1] is 53.3 µM; in the assay with HEK293, above 100 µM.

As to `COC(=O)c1c(C)cc(OC(=O)c2c(C)cc(O)c(/C=N/NC(=O)COc3cccc(C)c3)c2O)c(C)c1O`, the figures for the IC50 (in assay [1]; with HEK293) were 40.6 µM and above 100 µM, respectively.

`COC(=O)c1c(C)cc(OC(=O)c2c(C)cc(O)c(/C=N/NC(=O)c3cc(Cl)ccc3O)c2O)c(C)c1O`: the 50% inhibitory concentration (IC50) in assay [1] amounted to 9.91 µM; in the assay on HEK293, 63.2 µM. For `COC(=O)c1c(C)cc(OC(=O)c2c(C)cc(O)c(/C=N/NC(=O)COc3ccc(Br)cc3)c2O)c(C)c1O`, in that order: 17.3 µM and above 100 µM.

Consider `COC(=O)c1c(C)cc(OC(=O)c2c(C)cc(O)c(/C=N/NC(=O)COc3cc4ccccc4o3)c2O)c(C)c1O`, for which the concentration for half-maximal inhibition (IC50) in assay [1] came out at 39.7 µM; with HEK293, 84.4 µM. The like results for `COC(=O)c1c(C)cc(OC(=O)c2c(C)cc(O)c(/C=N/NC(=O)CNc3ccc(C)cc3)c2O)c(C)c1O` were, in that order, 31.5 µM and above 100 µM. Consider `COC(=O)c1c(C)cc(OC(=O)c2c(C)cc(O)c(/C=N/NC(=O)COc3ccc4ccccc4c3)c2O)c(C)c1O`, for which the half-inhibitory concentration (IC50) turned out to be 18.9 µM in assay [1] and 52.7 µM in the assay on HEK293. The like results for `COC(=O)c1c(C)cc(OC(=O)c2c(C)cc(O)c(/C=N/NC(=O)c3cc(I)ccc3O)c2O)c(C)c1O` were, in that order, 41.2 µM and 94.1 µM. Turning to `COC(=O)c1c(C)cc(OC(=O)c2c(C)cc(O)c(/C=N/NC(=O)Cc3ccccc3)c2O)c(C)c1O`, the half-inhibitory concentration (IC50) was 6.67 µM in assay [1] and above 100 µM with HEK293. For `COC(=O)c1c(C)cc(OC(=O)c2c(C)cc(O)c(/C=N/NC(=O)COc3cc(C)ccc3C(C)C)c2O)c(C)c1O`, in that order: 28.1 µM and above 100 µM. For `C[C@H]1O[C@H](O[C@H]2[C@H](O)[C@@H](O)[C@@H](O[C@H]3[C@H](O)[C@@H](O)C(O)O[C@@H]3CO)O[C@@H]2CO)[C@H](O)[C@@H](O)[C@@H]1N[C@H]1C=C(CO)[C@@H](O)[C@H](O)[C@H]1O` (some centres not stated) [ACARBOSE], the 50% inhibitory concentration (IC50) in assay [1] came to 93.6 µM. Same read-out and setting: with `COC(=O)c1c(C)cc(OC(=O)c2c(C)cc(O)c(C=O)c2O)c(C)c1O` [ATRANORIN] the figure was above 100 µM.

Regarding `COc1cccc2c1C(=O)c1c(O)c3c(c(O)c1C2=O)C[C@@](O)(C(=O)CO)C[C@@H]3O[C@H]1C[C@H](N)[C@H](O)[C@H](C)O1` [DOXORUBICIN], the IC50 in the assay on HEK293 was determined as 7.92 µM.
